Reference: patent US20160145202A1 (priority 2013, published 2016)

Test system: Septoria tritici
Experiment: Glass house trial: control of leaf blotch on wheat caused by Septoria tritici (SEPTTR_P1)
Assay type: in vivo
Conditions: 300 ppm, protective P1, wheat seedlings sprayed to run-off, visually assessed after 4 weeks
Protocol: The spray solutions were prepared in several steps:
The stock solution was prepared as follows: 0.84 ml of a 1:1 mixture of cyclohexanone and dimethylsulfoxide was added to 16.8 mg of active ingredient. Next, 27.16 ml of a mixture of water, acetone (10%), the emulsifier Wettol (0.1%) and the wetting agent Silwet (0.05%) was added.
This stock solution was then further diluted with the described solvent-emulsifier-water mixture to the desired concentrations. Two different compound applications were used: “protective, P1” and “curative, K1”, where the first means that the compound solution is applied a day before the fungus while the latter represents the opposite ordering.
Control of Leaf Blotch on Wheat Caused by Septoria tritici (SEPTTR_P1)
Leaves of pot-grown wheat seedling were sprayed to run-off with an aqueous suspension of F-1 (300 ppm), prepared as described. The plants were allowed to air-dry. At the following day the plants were inoculated with an aqueous spore suspension of Septoria tritici. Then the trial plants were immediately transferred to a humid chamber at 18-22° C. and a relative humidity close to 100%. After 4 days the plants were transferred to a chamber with 18-22° C. and a relative humidity close to 70%.

CNC(=O)OCc1cc(/C(C)=N/OCc2cccc(C)n2)ccc1Cl [F-1, [2-chloro-5-[(E)-C-methyl-N-[(6-methyl-2-pyridyl)methoxy]carbonimidoyl]phenyl]methyl N-methylcarbamate]
extent of fungal attack on the leaves (infection compared to untreated plants): ≤ 30%
